Source: DBAASP
Values after ≈ are worked out from the molar mass of the structure shown.

Tests used:
Experiment in all cases: ≥ marks a high value that may be exact or a test limit, other limits are often not marked, values filed in µg/mL are converted to µM
[1] = system: Candida albicans MTCC 227
[2] = system: Xanthomonas axonopodis ITCC BD00029
[3] = system: Fusarium solani MTCC 10158
[4] = system: Salmonella enterica subsp. enterica serovar Typhi
Vibrio cholerae = system: Vibrio cholerae
Bacillus cereus = system: Bacillus cereus
[5] = system: Staphylococcus aureus ATCC 43300
[6] = system: Xanthomonas oryzae ITCC BB00026
[7] = system: Escherichia coli DH5alpha
[8] = system: Staphylococcus aureus ATCC 33591
[9] = system: Staphylococcus aureus ATCC 29213
[10] = system: Staphylococcus aureus ATCC 25923
[11] = system: Pseudomonas aeruginosa ATCC 47615
[12] = system: Staphylococcus epidermidis ATCC 35984
[13] = system: Escherichia coli ATCC 25922
[14] = system: Pseudomonas aeruginosa ATCC 27853
[15] = system: Pseudomonas syringae EPS 94
[16] = system: Fusarium oxysporum f. sp. lycopersici ATCC 201829
[17] = system: Aspergillus niger CECT 2694
[18] = system: Rhizopus stolonifer CECT 2344
[19] = system: Penicillium expansum EPS 26
[20] = system: Xanthomonas vesicatoria 2133-2
[21] = system: Erwinia amylovora PMV 6076
[22] = system: Vibrio vulnificus 1H00066
[23] = system: Micrococcus luteus 1D00051
[24] = system: Staphylococcus aureus 1D00101
[25] = system: Escherichia coli K-12 594
[26] = system: Staphylococcus aureus ATCC 6538P
[27] = system: Staphylococcus aureus SR1550
[28] = system: Pseudomonas aeruginosa 1570
[29] = system: Pseudomonas aeruginosa 5167
[30] = system: Pseudomonas aeruginosa 8600
[31] = system: Staphylococcus aureus E4049
[32] = system: Staphylococcus aureus 5118
[33] = system: Staphylococcus aureus ATCC 9144
[34] = system: Listeria monocytogenes ATCC 19115
[35] = system: Bacillus subtilis CMCC 63501
[36] = system: Staphylococcus aureus CMCC 26003

For `NCCCC[C@H](NC(=O)[C@H](CCCCN)NC(=O)[C@H](CO)NC(=O)[C@H](CO)NC(=O)[C@H](CCCCN)NC(=O)[C@H](Cc1c[nH]c2ccccc12)NC(=O)[C@H](CCCN=C(N)N)NC(=O)[C@H](Cc1c[nH]c2ccccc12)NC(=O)[C@H](CCCN=C(N)N)NC(=O)[C@@H](N)CO)C(=O)O` [SRWRWKSSKK], the MIC [1] was ≥ 40 µM, the MIC [2] was 10 µM (≈ 13.5 µg/mL) and the MIC [3] was 20 µM (≈ 27 µg/mL). For the same compound, the MIC [4] was 20 µM (≈ 27 µg/mL), the MIC (Vibrio cholerae) was 30 µM (≈ 40.5 µg/mL) and the MIC (Bacillus cereus) was 30 µM (≈ 40.5 µg/mL). The MIC [5] was 20 µM (≈ 27 µg/mL), the MIC [6] was 10 µM (≈ 13.5 µg/mL) and the MIC [7] was 30 µM (≈ 40.5 µg/mL).

`CC[C@H](C)[C@H](NC(=O)[C@H](CCCCN)NC(=O)[C@@H](NC(=O)[C@H](Cc1ccccc1)NC(=O)[C@H](C)NC(=O)[C@H](CCCCN)NC(=O)CNC(=O)[C@H](Cc1ccccc1)NC(=O)[C@H](CCCCN)NC(=O)[C@H](CCCCN)NC(=O)[C@H](C)NC(=O)[C@H](CCCCN)NC(=O)[C@H](CCCCN)NC(=O)[C@H](CC(C)C)NC(=O)[C@H](Cc1ccccc1)NC(=O)[C@@H](N)CCCCN)C(C)C)C(=O)N[C@@H](CC(C)C)C(N)=O` [KFLKKAKKFGKAFVKIL] was tested, and the MIC [8] was 16 µM (≈ 32 µg/mL), the MIC [9] was 15.6 µM (≈ 31.2 µg/mL) and the MIC [10] was 5.67 µM (≈ 11.3 µg/mL). It also gave an MIC [11] of 1.96 µM (≈ 3.91 µg/mL), an MIC [12] of 1 µM (≈ 2 µg/mL) and an MIC [13] of 3.91 µM (≈ 7.8 µg/mL). For the same compound, the MIC [14] was 0.251 µM (≈ 0.5 µg/mL).

Compound `CC[C@H](C)[C@H](NC(=O)[C@H](CCCCN)NC(=O)[C@H](CCCCN)NC(=O)[C@H](Cc1ccccc1)NC(=O)[C@H](CC(C)C)NC(=O)[C@H](CCCCN)NC(=O)[C@@H](N)Cc1c[nH]c2ccccc12)C(=O)N[C@@H](CC(C)C)C(=O)N[C@@H](CCCCN)C(=O)N[C@@H](Cc1c[nH]c2ccccc12)C(=O)N[C@@H](CC(C)C)C(N)=O` [WKLFKKILKWL] has an MIC [15] of 5.92 µM (≈ 8.89 µg/mL), an MIC [16] of 1.73 µM (≈ 2.6 µg/mL) and an MIC [17] of 22.4 µM (≈ 33.6 µg/mL). The MIC [18] was ≥ 35.4 µM, the MIC [19] was 22.4 µM (≈ 33.6 µg/mL) and the MIC [20] was 2 µM (≈ 3 µg/mL). It also gave an MIC [21] of 5.92 µM (≈ 8.89 µg/mL).

In the case of `CC[C@H](C)[C@H](NC(=O)[C@H](CS)NC(=O)[C@H](Cc1cnc[nH]1)NC(=O)[C@H](CCCN=C(N)N)NC(=O)[C@@H](N)CCCN=C(N)N)C(=O)N[C@@H](CCCCN)C(=O)N[C@@H](CCCCN)C(=O)N[C@@H](CS)C(=O)N[C@@H](CCSC)C(=O)N[C@@H](CCCCN)C(=O)N[C@@H](CO)C(=O)N[C@@H](CCCN=C(N)N)C(=O)N[C@@H](CCCCN)C(=O)N[C@@H](Cc1cnc[nH]1)C(=O)N[C@@H](CC(N)=O)C(=O)N[C@@H](CCC(=O)O)C(=O)N[C@@H](CCCN=C(N)N)C(=O)N[C@@H](CCSC)C(=O)N[C@H](C(=O)N[C@@H](CCCN=C(N)N)C(=O)N[C@H](C(=O)N[C@@H](CCCN=C(N)N)C(=O)N[C@@H](CCCN=C(N)N)C(=O)N[C@@H](CCCCN)C(=O)O)[C@@H](C)CC)[C@@H](C)CC` [RRHCIKKCMKSRKHNERMIRIRRK], the MIC [22] is reported as ≥ 300 µM, the MIC [23] is reported as 5 µM (≈ 15.8 µg/mL) and the MIC [24] is reported as ≥ 40 µM.

In the case of `CC(C)C[C@H](NC(=O)[C@H](CC(C)C)NC(=O)[C@H](CC(C)C)NC(=O)[C@H](CC(C)C)NC(=O)[C@H](CC(C)C)NC(=O)[C@H](CCCCN)NC(=O)[C@H](CC(C)C)NC(=O)[C@@H](N)CCCCN)C(N)=O` [KLKLLLLL], the MIC [25] is reported as 21 µM (≈ 20 µg/mL), the MIC [26] is reported as 8.39 µM (≈ 7.99 µg/mL) and the MIC [27] is reported as ≥ 36.7 µM.

With `CC(C)C[C@H](NC(=O)[C@H](CC(C)C)NC(=O)[C@H](CCCCN)NC(=O)[C@H](CCCCN)NC(=O)[C@H](CC(C)C)NC(=O)[C@H](CC(C)C)NC(=O)[C@H](CCCCN)NC(=O)[C@H](CC(C)C)NC(=O)[C@H](C)N)C(N)=O` [ALKLLKKLL] the MIC [28] was ≥ 43.5 µM, the MIC [29] was ≥ 123 µM and the MIC [30] was 10.9 µM (≈ 11.3 µg/mL).

With `CC[C@H](C)[C@H](NC(=O)CNC(=O)[C@H](CC(=O)O)NC(=O)[C@@H](N)CC(=O)O)C(=O)N[C@@H](Cc1ccccc1)C(=O)N[C@H](C(=O)N[C@@H](C)C(=O)N[C@@H](Cc1ccccc1)C(=O)N[C@H](C(=O)N[C@@H](C)C(=O)N[C@H](C(=O)N[C@@H](CC(N)=O)C(=O)N[C@H](C(=O)N[C@H](C(=O)N[C@@H](CC(C)C)C(=O)N[C@H](C(=O)N[C@H](C(=O)N[C@H](C(=O)N[C@@H](Cc1ccccc1)C(=O)N[C@@H](Cc1ccc(O)cc1)C(=O)O)[C@@H](C)CC)C(C)C)[C@@H](C)O)[C@@H](C)CC)[C@@H](C)CC)[C@@H](C)CC)[C@@H](C)CC)[C@@H](C)CC` [DDGIFIAFIAINIILTVIFY] the MIC [31] was ≥ 271 µM, the MIC [32] was 2.2 µM (≈ 5 µg/mL) and the MIC [33] was ≥ 271 µM.

For `CC[C@H](C)[C@H](NC(=O)[C@H](CCCN=C(N)N)NC(=O)[C@H](CCCN=C(N)N)NC(=O)[C@H](Cc1c[nH]c2ccccc12)NC(=O)[C@@H](N)Cc1ccccc1)C(=O)N[C@@H](CCCN=C(N)N)C(=O)N[C@H](C(N)=O)C(C)C` [FWRRIRV], the MIC [34] was 31 µM (≈ 32 µg/mL), the MIC [35] was ≥ 124 µM and the MIC [36] was ≥ 62 µM.
